Reference: patent publication US8697694B2, “Substituted pyridine and pyrimidine derivatives and their use in treating viral infections” (priority 2008, dated 2014)

Each compound was assayed on HCV replicon cells (assay: Cell-based HCV replicon assay (replicon RNA level by real time PCR, Taqman)). Conditions: Hepatitis C virus, 72 h, HCV replicon cells, harvested day 3, replicon RNA by real time PCR; given as number; read-out: EC90 (μM) range.
Summary of the method: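 Readout: ΔCT between NS5B replicon RNA and GAPDH by real-time RT-PCR in lysates harvested on day 3, fitted sigmoidally; EC50 at ΔCT=1, EC90 at ΔCT=3.2. Compounds tested at ten 2-fold dilutions from 25 μM to 1 μM start, 10% FBS, 0.5% DMSO.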
Work on `Cc1nc(NCC(C)(C)C)nc(N[C@@H]2C[C@H](CO)[C@@H](O)[C@H]2O)c1-c1cc2cc(OCC(F)(F)F)nc(C)c2o1` [Example 46] yielded an EC90 of 0.85 µM.
`Cc1nc(NCC2CC2)nc(N[C@@H]2C[C@H](CO)[C@@H](O)[C@H]2O)c1-c1cc2cc(OCC(F)(F)F)nc(C)c2o1` [Example 47] was tested, and the EC90 was 0.4 µM.
In the case of `CCOc1cc2cc(-c3c(C)nc(NC(C)(C)CC)nc3N[C@@H]3C[C@H](CO)[C@@H](O)[C@H]3O)oc2c(C)n1` [Example 26], the EC90 is reported as 0.5 µM.
Work on `Cc1nc(NCCCF)nc(N[C@@H]2C[C@H](CO)[C@@H](O)[C@H]2O)c1-c1nc2ccccc2s1` [Example 127] yielded an EC90 of 0.7 µM.
Work on `CCOc1cc2cc(-c3c(C)nc(N[C@H](C)C4CC4)nc3N[C@@H]3C[C@H](CO)[C@@H](O)[C@H]3O)oc2c(C)n1` [Example 41] yielded an EC90 of 0.2 µM.

Same assay, conditions: Hepatitis C virus, 72 h, HCV replicon cells, harvested day 3, replicon RNA by real time PCR; reported as range class; read-out: EC90 (μM) range
In the case of `Cc1nc(NCC2CC2)nc(N[C@@H]2C[C@H](CO)[C@@H](O)[C@H]2O)c1-c1cc2cc(-c3cccs3)nc(C)c2o1` [Example 43], the EC90 is reported as over 5 µM.
`CCc1cc2cc(-c3c(Cl)nc(N)nc3N[C@@H]3C[C@H](CO)[C@@H](O)[C@H]3O)oc2cn1` [Example 406] gave an EC90 of under 0.5 µM.
For `CCN(C)c1nc(Cl)c(-c2nc3ccccc3s2)c(N[C@@H]2C[C@H](CO)[C@@H](O)[C@H]2O)n1` [Example 318], the EC90 was under 0.5 µM.
In the case of `Nc1nc(Cl)c(-c2nc3c(Cl)cccc3s2)c(N[C@@H]2C[C@H](CO)[C@@H](O)[C@H]2O)n1` [Example 183], the EC90 is reported as 0.5 to 5 µM.
Compound `CN(C)C(=O)c1ccc2oc(-c3c(Cl)nc(N)nc3N[C@@H]3C[C@H](CO)[C@@H](O)[C@H]3O)cc2c1` [Example 168] has an EC90 of over 5 µM.
In the case of `Cc1nc(NCCCC(F)(F)F)nc(N[C@@H]2C[C@H](CO)[C@@H](O)[C@H]2O)c1-c1nc2ccccc2s1` [Example 225], the EC90 is reported as under 0.5 µM.
Compound `Nc1nc(Cl)c(-c2cccs2)c(N[C@@H]2C[C@H](CO)[C@@H](O)[C@H]2O)n1` [Example 153] has an EC90 of over 5 µM.
With `COc1ccc2nc(-c3c(Cl)nc(N)nc3N[C@@H]3C[C@H](CO)[C@@H](O)[C@H]3O)sc2c1` [Example 181] the EC90 was under 0.5 µM.
Compound `Nc1nc(Cl)c(-c2nc3ccc(Cl)cc3s2)c(N[C@@H]2C[C@H](CO)[C@@H](O)[C@H]2O)n1` [Example 188] has an EC90 of over 5 µM.

Same assay, conditions: Hepatitis C virus, 72 h, HCV replicon cells, harvested on day 3, replicon RNA by real time PCR; calculated EC90 reported as range class; read-out: EC90 (μM) range
Work on `COc1cc(CNc2nc(C)c(-c3nc4ccccc4s3)c(N[C@@H]3C[C@H](CO)[C@H]4OC(C)(C)O[C@H]43)n2)cc(OC)c1OC` [Example 710] yielded an EC90 of under 0.5 µM.
With `Cc1nc(NCC2CC2)nc(N[C@@H]2C[C@H](CO)[C@@H](O)[C@H]2O)c1-c1nc2ccccc2s1` [Example 505] the EC90 was under 0.5 µM.
Work on `CCOCCNc1nc(C)c(-c2nc(C)c(C)s2)c(N[C@@H]2C[C@H](CO)[C@H]3OC(C)(C)O[C@H]32)n1` [Example 133] yielded an EC90 of over 5 µM.
With `Cc1nc(NCc2nccs2)nc(N[C@@H]2C[C@H](CO)[C@@H](O)[C@H]2O)c1-c1nc2ccccc2s1` [Example 474] the EC90 was under 0.5 µM.
`Cc1nc(NCc2cccc(F)c2)nc(N[C@@H]2C[C@H](CO)[C@H]3OC(C)(C)O[C@H]32)c1-c1nc2ccccc2s1` [Example 243] was tested, and the EC90 was under 0.5 µM.
In the case of `COc1cc(CNc2nc(C)c(-c3cc4cc(OC)nc(C)c4o3)c(N[C@@H]3C[C@H](CO)[C@@H](O)[C@H]3O)n2)cc(OC)c1` [Example 348], the EC90 is reported as under 0.5 µM.
With `CCc1cc2cc(-c3c(C)nc(NCC4CC4)nc3N[C@@H]3C[C@H](CO)[C@@H](O)[C@H]3O)oc2cn1` [Example 509] the EC90 was under 0.5 µM.

Same assay, conditions: Hepatitis C virus, 72 h, HCV replicon cells, replicon RNA level by real time PCR (Taqman), harvested on day 3; calculated EC90 reported as range class; read-out: EC90 (μM) range
`Cc1nc(NCc2cccs2)nc(N2CCC[C@H]2CO)c1-c1nc2ccccc2s1` [Example 1224] gave an EC90 of over 5 µM.
Work on `Cc1nc(Nc2ccccc2)nc(N[C@@H]2C[C@H](CO)[C@@H](O)[C@H]2O)c1-c1nc2cnccc2s1` [Example 1216] yielded an EC90 of 0.5 to 5 µM.
For `CCOc1nc(C)cc2cc(-c3c(C)nc(NCC(F)(F)F)nc3N[C@@H]3C[C@H](CO)[C@@H](O)[C@H]3O)oc12` [Example 1246], the EC90 was under 0.5 µM.
For `Cc1nc(N[C@H](C)c2ccc(F)cc2)nc(N[C@@H]2C[C@H](CO)[C@@H](O)[C@H]2O)c1-c1nc2cnccc2s1` [Example 1311], the EC90 was under 0.5 µM.
Compound `CC[C@@H](C)Nc1nc(C)c(-c2nc3cnccc3s2)c(N[C@@H]2C[C@H](CO)[C@@H](O)[C@H]2O)n1` [Example 1316] has an EC90 of under 0.5 µM.
For `Cc1nc(Nc2ncco2)nc(N[C@@H]2C[C@H](CO)[C@@H](O)[C@H]2O)c1-c1nc2ccccc2s1` [Example 1226], the EC90 was over 5 µM.
For `Cc1nc(N[C@@H](C)c2ccccc2)nc(N[C@@H]2C[C@H](CO)[C@@H](O)[C@H]2O)c1-c1nc2cnccc2s1` [Example 1305], the EC90 was 0.5 to 5 µM.
For `Cc1nc(NC(C)c2ccco2)nc(N[C@@H]2C[C@H](CO)[C@H]3OC(C)(C)O[C@H]32)c1-c1nc2ccccc2s1` (stereo partly shown) [Example 1101], the EC90 was over 5 µM.
Compound `COc1cccc2sc(-c3c(C)nc(NCC(F)(F)F)nc3N[C@@H]3C[C@H](CO)[C@@H](O)[C@H]3O)nc12` [Example 1070] has an EC90 of 0.5 to 5 µM.
For `COCCNc1nc(C)c(-c2nc3cc(OC(F)F)c(OC(F)F)cc3s2)c(N[C@@H]2C[C@H](CO)[C@H]3OC(C)(C)O[C@H]32)n1` [Example 1003], the EC90 was over 5 µM.
For `COc1cc2cc(-c3c(C)nc(NCC4CC4)nc3N[C@@H]3C[C@H](CO)[C@H]4OC(C)(C)O[C@H]43)oc2c(OC)n1` [Example 1126], the EC90 was 0.5 to 5 µM.
`Cc1nc(NCC(C)(C)C)nc(N[C@@H]2C[C@H](CO)[C@@H](O)[C@H]2O)c1-c1cc2cc(C(C)(C)C)ncc2o1` [Example 1104] showed an EC90 of over 5 µM.

Same assay, conditions: Hepatitis C virus, 72 h, HCV replicon cells, replicon RNA level by real time PCR, harvested day 3; read-out: EC90 (μM) range
Work on `CC(=O)C1=C[C@@H](O)[C@H](Nc2nc(NCC(F)(F)F)nc(C)c2-c2nc3ccccc3s2)C1` [Example 1636] yielded an EC90 of under 0.5 µM.
`Cc1nc(N[C@H](C)C2CC2)nc(N[C@@H]2C[C@H](C(C)O)[C@@H](O)[C@H]2O)c1-c1nc2cnccc2s1` (stereo partly shown) [Example 1642] showed an EC90 of under 0.5 µM.
`Cc1nc(NCC(F)(F)F)nc(NC2CCNC2)c1-c1nc2ccccc2s1` (stereo not shown) [Example 1517] was tested, and the EC90 was over 5 µM.
Compound `CCOCCNc1nc(C)c(-c2nc3c(CC)nccc3s2)c(N[C@@H]2C[C@H](CO)[C@@H](O)[C@H]2O)n1` [Example 1504] has an EC90 of under 0.5 µM.
`Cc1ccc([C@@H](C)Nc2nc(C)c(-c3nc4c(OCC5CC5)nccc4s3)c(N[C@@H]3C[C@H](CO)[C@@H](O)[C@H]3O)n2)cc1` [Example 1339] was tested, and the EC90 was under 0.5 µM.
With `Cc1nc(NC2CC2)nc(N[C@@H]2C[C@H](CO)[C@@H](O)[C@H]2O)c1-c1nc2c(C3CC3)nccc2s1` [Example 1402] the EC90 was under 0.5 µM.
`Cc1ccc(CCNc2nc(C)c(-c3nc4ccccc4s3)c(N[C@@H]3C[C@H](CO)[C@@H](O)[C@H]3O)n2)s1` [Example 1812] showed an EC90 of 0.5 to 5 µM.
For `Cc1nc(NCC(F)(F)F)nc(NC2CCNCC2)c1-c1nc2ccccc2s1` [Example 1516], the EC90 was 0.5 to 5 µM.
`Cc1nc(NCCc2cccs2)nc(N[C@@H]2C[C@H](CO)[C@@H](O)[C@H]2O)c1-c1nc2ccccc2s1` [Example 1805] gave an EC90 of under 0.5 µM.
`Cc1nc(N[C@H](c2ccc(C(F)(F)F)cc2)C(F)(F)F)nc(N[C@@H]2C[C@H](CO)[C@@H](O)[C@H]2O)c1-c1nc2c(C)nccc2s1` [Example 1531] was tested, and the EC90 was over 5 µM.
`Cc1nc(N[C@H](C)C2CC2)nc(N[C@@H]2CC[C@@H](O)[C@@]2(C)O)c1-c1nc2c(C)nccc2s1` [Example 1817] was tested, and the EC90 was under 0.5 µM.
With `Cc1ccccc1[C@@H](C)Nc1nc(C)c(-c2nc3c(C)nccc3s2)c(N[C@@H]2C[C@H](CO)[C@@H](O)[C@H]2O)n1` [Example 1527] the EC90 was under 0.5 µM.

Same assay, conditions: Hepatitis C virus, 72 h, read-out: EC90 (μM) range
`Cc1nc(C#N)nc(N[C@@H]2C[C@H](CO)[C@H]3OC(C)(C)O[C@H]32)c1-c1nc2ccccc2s1` [Example 1901] gave an EC90 of over 5 µM.
